Like-named read-outs stand apart in the source and are kept apart here.
Legend:
PDGFRA (PDGFR alpha) = PDGFRA (PDGFR alpha) (Homo sapiens, UniProt P16234); test: SelectScreen kinase profiling, PDGFRA; format: biochemical; conditions: read-out: Enzyme inhibitory activity IC50
MAP2K4 (MEK4) = MAP2K4 (MEK4) (Homo sapiens, UniProt P45985); test: SelectScreen kinase profiling, MAP2K4 (MEK4); format: binding; conditions: cell free, read-out: Enzyme inhibitory activity IC50
Experimental: (§1) The in vitro kinase inhibitory assays in the presence of compounds 323-1 and 323-2 were carried out according to the Z′-LYTE™ Screening and LanthaScreen Eu Kinase Binding Assays Experimental Procedures in Invitrogen (ThermoFisher Scientific, Waltham, Mass., USA). For the Z′-LYTE™ Screening profiling for FRAP1 (mTOR), JAK3, and LTK (TYK1), a mixture containing the test compounds in 100% DMSO, 2.4 μL Kinase buffer (50 mM HEPES pH 7.5, 0.01% BRIJ-35, 10 mM MgCl2, 1 mM EGTA), 5 μL 2× Peptide/Kinase Mixture, 2.5 μL 4×ATP Solution were added into black 384-well low volume NBS and bar-coded corning plate (Corning Cat. #4514) and shake the plate for 30 seconds. After incubation at RT for 60 min, 5 μL Development Reagent Solution was added into plate and shake the plate for 30 seconds, followed by Development Reaction incubation at RT for 60 min. Read on fluorescence plate reader and analyze the data. […]
(§2) Inhibition by compounds 323-1 and 323-2 of MAP2K4 (MEK4) and TGFBR1 (ALK5) was determined by […]. Inhibition by compounds 323-1 and 323-2 of FRAP1 (mTOR), JAK3, and LTK (TYK1) was determined by […] using the Adapta Universal Kinase Assay (Life Technologies). […]

JAK1 = JAK1 (Homo sapiens, UniProt P23458); test: SelectScreen kinase profiling, JAK1; format: biochemical; conditions: read-out: Enzyme inhibitory activity IC50
MAP2K6 (MKK6) = MAP2K6 (MKK6) (Homo sapiens, UniProt P52564); test: SelectScreen kinase profiling, MAP2K6; format: biochemical; conditions: read-out: Enzyme inhibitory activity IC50
FRAP1 (mTOR) = FRAP1 (mTOR) (Homo sapiens, UniProt P42345); test: SelectScreen biochemical kinase profiling, FRAP1 (mTOR); conditions: cell free, read-out: Enzyme inhibitory activity IC50
Experimental: as §1, §2

JAK3 = JAK3 (Homo sapiens, UniProt P52333); test: SelectScreen biochemical kinase profiling, JAK3; conditions: JAK3, cell free; read-out: Enzyme inhibitory activity IC50
Experimental: as §1, §2

MAPK3 (ERK1) = MAPK3 (ERK1) (Homo sapiens, UniProt P27361); test: SelectScreen kinase profiling, MAPK3; format: biochemical; conditions: read-out: Enzyme inhibitory activity IC50
MET (cMet) = MET (cMet) (Homo sapiens, UniProt P08581); test: SelectScreen kinase profiling, MET; format: biochemical; conditions: read-out: Enzyme inhibitory activity IC50
MAPK1 (ERK2) = MAPK1 (ERK2) (Homo sapiens, UniProt P28482); test: SelectScreen kinase profiling, MAPK1; format: biochemical; conditions: read-out: Enzyme inhibitory activity IC50
HCK = HCK (Homo sapiens, UniProt P08631); test: SelectScreen kinase profiling, HCK; format: biochemical; conditions: read-out: Enzyme inhibitory activity IC50
FGFR1 = FGFR1 (Homo sapiens, UniProt P11362); test: SelectScreen kinase profiling, FGFR1; format: biochemical; conditions: read-out: Enzyme inhibitory activity IC50
TGFBR2 = TGFBR2 (Homo sapiens, UniProt P37173); test: SelectScreen kinase profiling, TGFBR2; format: biochemical; conditions: read-out: Enzyme inhibitory activity IC50
AKT1 (PKB alpha) = AKT1 (PKB alpha) (Homo sapiens, UniProt P31749); test: SelectScreen kinase profiling, AKT1; format: biochemical; conditions: read-out: Enzyme inhibitory activity IC50
LYN B = LYN B (Homo sapiens, UniProt P07948); test: SelectScreen kinase profiling, LYN B; format: biochemical; conditions: read-out: Enzyme inhibitory activity IC50
FLT4 (VEGFR3) = FLT4 (VEGFR3) (Homo sapiens, UniProt P35916); test: SelectScreen kinase profiling, FLT4; format: biochemical; conditions: read-out: Enzyme inhibitory activity IC50
JAK2 = JAK2 (Homo sapiens, UniProt O60674); test: SelectScreen kinase profiling, JAK2; format: biochemical; conditions: read-out: Enzyme inhibitory activity IC50
SRC N1 = SRC N1 (Homo sapiens, UniProt P12931); test: SelectScreen kinase profiling, SRC N1; format: biochemical; conditions: read-out: Enzyme inhibitory activity IC50
FLT1 (VEGFR1) = FLT1 (VEGFR1) (Homo sapiens, UniProt P17948); test: SelectScreen kinase profiling, FLT1; format: biochemical; conditions: read-out: Enzyme inhibitory activity IC50
LTK (TYK1) = LTK (TYK1) (Homo sapiens, UniProt P29376); test: SelectScreen biochemical kinase profiling, LTK (TYK1); conditions: cell free, read-out: Enzyme inhibitory activity IC50
Experimental: as §1, §2

[1] = target: T1, Recombinant Human STAT3 protein (SH2 domain) (Homo sapiens, UniProt P40763); test: Fluorescence Polarization (FP) competition assay, STAT3 / GpYLPQTV-NH2 peptide; format: binding
T1 construct: purchased Abcam ab43618
Experimental: The FP assay was conducted as described by Zhao et al. (J Biol Chem. 2010; 285: 35855-65). The labeled phosphopeptide, 5-FLU-G(P-TYR)LPQTV-NH2 was synthesized by ProImmune (London, UK) with over 95% purity as probe. The Recombinant Human STAT3 protein was purchased from Abcam (ab43618). For saturation curves, various concentration of peptide probe (0-100 nM) and STAT3 protein ([…]) were incubated for 30 min at RT in the buffer (50 mm NaCl, 10 mm HEPES, 1 mm EDTA, 0.1% Nonidet P-40). To obtain the inhibitory effect, drugs (0-1000 μM) and 150 nM human STAT3 were incubated at 37° C. for 1 hour prior to co-incubation with 10 nM of labeled LPQTV peptide at RT for 30 min. […] The fluorescence polarization was then analyzed by the BioTek Synergy™ Neo2 Multi-Mode Microplate Reader (BioTek Instruments, Winooski, Vt., USA). Ki=IC50/(([L])/Kd)+1).
Strategies to target STAT3 SH2 have been pursued recently. These small molecule inhibitors are designed to bind to a site resident in the STAT3 SH2 domain by competing with the p-Tyr705.
As STAT3 may be recruited to gp130 within phosphotyrosine residues, the competitive FP assay was utilized to identify whether 323-1 and 323-2 target STAT3 SH2 domain.
The control was set as 1% DMSO. Data are representative of 2 independent experiments.

[2] = 10 nM peptide, 150 nM human STAT3 (FIG. 20), read-out: Ki, disruption of binding of STAT3 to phosphotyrosine peptide GpYLPQTV
[3] = background (autofluorescence) subtracted (FIG. 33), read-out: Ki, protein-ligand interaction after background subtraction

T1 sequence (P40763 whole entry, the tested form may be a part): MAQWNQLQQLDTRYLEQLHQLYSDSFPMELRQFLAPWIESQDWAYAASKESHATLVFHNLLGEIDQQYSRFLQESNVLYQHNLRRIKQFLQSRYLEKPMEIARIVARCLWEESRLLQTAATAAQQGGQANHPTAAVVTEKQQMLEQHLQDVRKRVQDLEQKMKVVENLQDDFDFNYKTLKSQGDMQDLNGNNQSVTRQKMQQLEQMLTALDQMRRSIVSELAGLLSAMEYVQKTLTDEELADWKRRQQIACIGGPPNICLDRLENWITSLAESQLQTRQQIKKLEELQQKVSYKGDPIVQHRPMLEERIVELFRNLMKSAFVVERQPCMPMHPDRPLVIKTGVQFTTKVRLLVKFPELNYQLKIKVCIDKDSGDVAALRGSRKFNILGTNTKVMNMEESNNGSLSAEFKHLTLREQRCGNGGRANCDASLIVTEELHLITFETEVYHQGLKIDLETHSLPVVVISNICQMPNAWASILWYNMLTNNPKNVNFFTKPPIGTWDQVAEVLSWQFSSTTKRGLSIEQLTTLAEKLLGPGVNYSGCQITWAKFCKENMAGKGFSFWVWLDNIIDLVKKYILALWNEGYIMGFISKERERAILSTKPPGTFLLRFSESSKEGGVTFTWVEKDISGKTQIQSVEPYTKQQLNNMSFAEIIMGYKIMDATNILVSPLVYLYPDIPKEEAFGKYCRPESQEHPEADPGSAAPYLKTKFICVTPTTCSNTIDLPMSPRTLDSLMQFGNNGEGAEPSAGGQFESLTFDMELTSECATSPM
FGFR1, sequence (P11362 22-822): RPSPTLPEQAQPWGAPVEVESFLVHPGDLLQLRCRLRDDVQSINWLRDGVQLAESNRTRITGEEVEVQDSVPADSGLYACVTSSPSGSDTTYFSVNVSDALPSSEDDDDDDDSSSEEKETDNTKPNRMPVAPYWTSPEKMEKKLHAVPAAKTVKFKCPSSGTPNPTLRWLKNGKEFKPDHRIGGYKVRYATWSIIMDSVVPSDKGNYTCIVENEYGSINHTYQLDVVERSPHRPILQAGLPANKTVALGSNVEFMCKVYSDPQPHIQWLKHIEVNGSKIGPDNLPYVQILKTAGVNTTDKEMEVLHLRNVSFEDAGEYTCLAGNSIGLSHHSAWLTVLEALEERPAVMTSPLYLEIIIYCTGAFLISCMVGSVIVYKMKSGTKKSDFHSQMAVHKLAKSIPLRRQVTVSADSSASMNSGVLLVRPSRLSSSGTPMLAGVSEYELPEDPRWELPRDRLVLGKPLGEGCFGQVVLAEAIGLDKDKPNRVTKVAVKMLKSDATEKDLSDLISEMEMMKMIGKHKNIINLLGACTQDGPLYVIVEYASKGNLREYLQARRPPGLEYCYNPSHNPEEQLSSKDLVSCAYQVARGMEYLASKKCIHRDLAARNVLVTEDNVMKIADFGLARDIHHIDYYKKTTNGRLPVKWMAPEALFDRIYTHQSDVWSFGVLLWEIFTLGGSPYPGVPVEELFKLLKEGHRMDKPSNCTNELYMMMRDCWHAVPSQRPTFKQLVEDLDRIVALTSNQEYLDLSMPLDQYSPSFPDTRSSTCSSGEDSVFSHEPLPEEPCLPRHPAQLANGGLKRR
FLT1 (VEGFR1), sequence (P17948 27-1338): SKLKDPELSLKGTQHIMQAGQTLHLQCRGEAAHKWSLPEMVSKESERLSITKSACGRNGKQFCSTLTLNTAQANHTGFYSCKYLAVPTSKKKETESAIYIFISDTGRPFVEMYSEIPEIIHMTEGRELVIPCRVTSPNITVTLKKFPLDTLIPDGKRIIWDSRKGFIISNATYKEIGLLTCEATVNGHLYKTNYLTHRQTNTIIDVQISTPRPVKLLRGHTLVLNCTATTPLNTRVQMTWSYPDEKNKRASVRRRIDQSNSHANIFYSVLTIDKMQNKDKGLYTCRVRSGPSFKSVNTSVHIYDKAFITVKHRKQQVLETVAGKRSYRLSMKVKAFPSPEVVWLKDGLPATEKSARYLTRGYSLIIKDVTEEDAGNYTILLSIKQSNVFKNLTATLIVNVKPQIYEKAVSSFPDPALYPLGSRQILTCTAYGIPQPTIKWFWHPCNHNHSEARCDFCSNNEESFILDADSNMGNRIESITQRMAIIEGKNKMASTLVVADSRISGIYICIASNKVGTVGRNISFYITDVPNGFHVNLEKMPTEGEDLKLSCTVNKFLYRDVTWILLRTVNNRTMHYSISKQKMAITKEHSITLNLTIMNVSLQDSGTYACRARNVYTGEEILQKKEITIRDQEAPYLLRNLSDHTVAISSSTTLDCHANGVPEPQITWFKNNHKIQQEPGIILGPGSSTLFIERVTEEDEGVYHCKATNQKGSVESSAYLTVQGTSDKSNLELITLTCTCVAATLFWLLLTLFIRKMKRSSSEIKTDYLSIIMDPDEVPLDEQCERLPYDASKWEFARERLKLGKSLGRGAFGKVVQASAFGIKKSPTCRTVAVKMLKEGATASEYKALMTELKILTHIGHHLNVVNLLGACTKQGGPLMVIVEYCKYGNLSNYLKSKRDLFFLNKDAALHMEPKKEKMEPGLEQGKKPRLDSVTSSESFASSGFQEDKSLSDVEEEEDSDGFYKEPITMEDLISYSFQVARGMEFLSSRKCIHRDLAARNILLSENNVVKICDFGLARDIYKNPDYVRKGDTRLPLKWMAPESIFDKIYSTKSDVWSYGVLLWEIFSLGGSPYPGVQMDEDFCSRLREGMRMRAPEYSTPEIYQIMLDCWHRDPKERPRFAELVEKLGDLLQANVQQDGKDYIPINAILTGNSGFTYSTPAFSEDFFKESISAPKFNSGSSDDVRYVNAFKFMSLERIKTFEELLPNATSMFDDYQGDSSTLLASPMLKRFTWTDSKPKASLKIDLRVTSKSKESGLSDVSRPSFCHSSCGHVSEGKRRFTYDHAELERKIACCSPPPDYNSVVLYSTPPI
MAPK1 (ERK2), sequence (P28482 whole entry): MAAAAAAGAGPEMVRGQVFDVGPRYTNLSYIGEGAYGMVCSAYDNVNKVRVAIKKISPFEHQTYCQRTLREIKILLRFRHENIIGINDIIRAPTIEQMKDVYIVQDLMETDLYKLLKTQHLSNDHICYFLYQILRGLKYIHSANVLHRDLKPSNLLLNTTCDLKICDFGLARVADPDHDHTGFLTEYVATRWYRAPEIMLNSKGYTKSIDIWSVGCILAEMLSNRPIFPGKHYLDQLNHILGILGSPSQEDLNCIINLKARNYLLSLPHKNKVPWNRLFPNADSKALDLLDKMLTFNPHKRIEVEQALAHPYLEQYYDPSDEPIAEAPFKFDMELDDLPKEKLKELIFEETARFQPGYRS
MAP2K4 (MEK4), sequence (P45985 whole entry): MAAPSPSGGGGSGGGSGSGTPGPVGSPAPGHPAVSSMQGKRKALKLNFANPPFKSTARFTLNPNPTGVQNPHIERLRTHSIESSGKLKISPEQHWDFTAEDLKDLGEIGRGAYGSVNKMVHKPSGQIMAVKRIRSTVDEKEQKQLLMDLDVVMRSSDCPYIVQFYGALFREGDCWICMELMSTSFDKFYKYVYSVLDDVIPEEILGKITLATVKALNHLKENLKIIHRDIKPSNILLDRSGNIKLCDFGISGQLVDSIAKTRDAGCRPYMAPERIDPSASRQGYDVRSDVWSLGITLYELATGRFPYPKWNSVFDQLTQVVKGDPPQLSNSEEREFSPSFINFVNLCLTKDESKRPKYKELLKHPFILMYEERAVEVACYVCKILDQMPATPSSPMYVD
SRC N1, sequence (P12931 1-542 isoform P12931-2): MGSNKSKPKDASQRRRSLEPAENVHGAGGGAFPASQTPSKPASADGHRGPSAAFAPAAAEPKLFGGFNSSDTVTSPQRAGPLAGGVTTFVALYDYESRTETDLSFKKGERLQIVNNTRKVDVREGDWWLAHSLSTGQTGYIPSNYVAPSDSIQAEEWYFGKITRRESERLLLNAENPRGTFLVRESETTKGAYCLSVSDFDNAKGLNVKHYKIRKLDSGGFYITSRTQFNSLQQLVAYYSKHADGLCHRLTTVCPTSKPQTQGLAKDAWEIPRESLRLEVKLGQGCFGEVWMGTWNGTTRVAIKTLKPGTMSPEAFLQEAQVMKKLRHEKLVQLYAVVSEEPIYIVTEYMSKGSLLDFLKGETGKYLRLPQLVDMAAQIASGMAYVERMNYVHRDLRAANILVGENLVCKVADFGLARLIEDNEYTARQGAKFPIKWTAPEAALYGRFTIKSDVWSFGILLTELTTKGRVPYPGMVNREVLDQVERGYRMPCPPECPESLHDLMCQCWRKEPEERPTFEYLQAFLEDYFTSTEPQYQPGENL
LYN B, sequence (P07948 1-491 isoform P07948-2): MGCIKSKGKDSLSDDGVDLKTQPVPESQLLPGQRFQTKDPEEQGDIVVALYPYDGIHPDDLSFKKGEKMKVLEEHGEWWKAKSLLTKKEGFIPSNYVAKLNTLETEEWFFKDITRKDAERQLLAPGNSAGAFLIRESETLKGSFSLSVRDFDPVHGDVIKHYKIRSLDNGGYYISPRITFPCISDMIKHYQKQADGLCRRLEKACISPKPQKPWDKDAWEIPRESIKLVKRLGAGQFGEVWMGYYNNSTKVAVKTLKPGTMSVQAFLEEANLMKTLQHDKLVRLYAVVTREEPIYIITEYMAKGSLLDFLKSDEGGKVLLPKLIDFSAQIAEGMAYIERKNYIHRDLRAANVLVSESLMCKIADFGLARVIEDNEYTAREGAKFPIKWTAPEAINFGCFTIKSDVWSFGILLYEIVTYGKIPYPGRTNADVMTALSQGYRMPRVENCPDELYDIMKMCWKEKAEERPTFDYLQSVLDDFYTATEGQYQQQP
MAP2K6 (MKK6), sequence (P52564 whole entry): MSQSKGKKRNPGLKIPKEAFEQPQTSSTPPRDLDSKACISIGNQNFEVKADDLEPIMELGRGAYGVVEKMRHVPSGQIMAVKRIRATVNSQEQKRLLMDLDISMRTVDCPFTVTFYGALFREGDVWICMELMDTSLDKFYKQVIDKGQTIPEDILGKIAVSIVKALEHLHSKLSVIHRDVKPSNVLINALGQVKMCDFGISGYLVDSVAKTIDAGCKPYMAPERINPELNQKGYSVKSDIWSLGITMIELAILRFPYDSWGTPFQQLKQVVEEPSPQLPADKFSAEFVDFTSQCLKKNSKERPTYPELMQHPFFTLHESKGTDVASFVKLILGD

| Compound | IC50 (PDGFRA (PDGFR alpha)) [µM] | IC50 (MAP2K4 (MEK4)) [µM] | IC50 (JAK1) [µM] | IC50 (MAP2K6 (MKK6)) [µM] | IC50 (FRAP1 (mTOR)) [µM] | IC50 (JAK3) [µM] | IC50 (MAPK3 (ERK1)) [µM] | IC50 (MET (cMet)) [µM] | IC50 (MAPK1 (ERK2)) [µM] | IC50 (HCK) [µM] | IC50 (FGFR1) [µM] | IC50 (TGFBR2) [µM] | IC50 (AKT1 (PKB alpha)) [µM] | IC50 (LYN B) [µM] | IC50 (FLT4 (VEGFR3)) [µM] | IC50 (JAK2) [µM] | IC50 (SRC N1) [µM] | IC50 (FLT1 (VEGFR1)) [µM] | IC50 (LTK (TYK1)) [µM] | Ki [1, 2] [µM] | further results |
| --- | --- | --- | --- | --- | --- | --- | --- | --- | --- | --- | --- | --- | --- | --- | --- | --- | --- | --- | --- | --- | --- |
| C[C@@H]1CCC(c2cc3c4c(cncc4c2)[C@H](C)C3)=C1C=O [323-1, (15R,2R)-Delavatine A] | > 20 | 2.01 | > 20 | > 20 | 6.13 | 4.26 | > 20 | > 20 | > 20 | > 20 | > 20 | > 20 | > 20 | > 20 | > 20 | > 20 | > 20 | > 20 | 6.22 | ~94 | Ki [1, 3]: 94 µM |
| C[C@@H]1CCC(c2cc3c4c(cncc4c2)[C@@H](C)C3)=C1C=O [323-2, (15S,2R)-Delavatine A] | > 20 | 1.22 | > 20 | > 20 | 7.52 | 11.6 | > 20 | > 20 | > 20 | > 20 | > 20 | > 20 | > 20 | > 20 | > 20 | > 20 | > 20 | > 20 | 5.25 | ~75 | Ki [1, 3]: 75 µM; Potency to disrupt STAT3/GpYLPQTV relative to S3I-201 ([1]; higher than S3I-201): around 5 fold |
